Measurements as given in article PMC7031302, “Design and synthesis of new energy restriction mimetic agents: Potent anti-tumor activities of hybrid motifs of aminothiazoles and coumarins” (Scientific Reports, 2020).
Where two headings read alike, the source gives them in different places.

Key:
Format in all cases: cell-based, Human
[1] = test system: CRC cells; assay: NADPH/NADP+ assay; details: 48 h treatment
Excerpt: (§1) According to previous studies, ERMAs inhibited glucose utilization in cancer cells[13],[19]. Therefore, we investigated glucose uptake (Fig. 5A) upon treatment with 9b and 9f in HT-29 and HCT116 cells at different concentrations based on the IC50 of each compound. […] This effect is known to result in the accumulation of reactive oxygen species (ROS) and could play a role in glucose deprivation-induced cytotoxicity and oxidative stress in cancer cells. […] The observed increase in ROS levels could lead to oxidative stress and extensive cell death in the absence of NADPH detoxification.
NADPH/NADP+ and ROS concentrations were measured using the NADP/NADPH-Glo Assay Kit (Promega, Madison, WI, USA) and ROS-Glo H2O2 Assay (Promega, Madison, WI, USA), respectively, based on the manufacturer instructions. In NADPH/NADP+ assay, CRC cells were seeded into a 96-well flat-bottomed plate and incubated overnight. On the following day, cells were treated with the testing compound or vehicle for 48 h. At the endpoint of treatment, the media were aspirated and replaced with 60 µl PBS/well, then cells were lysed in 60 µl base solution with 1% dodecyl (trimethyl) ammonium bromide (Sigma-Aldrich-St. Louis, MO, USA). […] Luminescence was measured after 30 minutes using Varioskan Flash multimode reader (Thermo Scientific). […] Luminescence was measured after 20 min incubation at room temperature.

[2] = test system: HCT116; assay: MTT cell viability, HCT116; details: 72 h, MTT assay, mean ± SD (n = 6), read-out: half-maximal inhibitory concentration (IC50) HCT116
Description: (§2) The potential cytotoxicity of 24 candidate compounds was initially evaluated at a single concentration level (5 μM). Then a full dose-response curve was plotted for each compound against different colorectal cancer cell lines (HCT116 and HT-29) by MTT assay after 72 h treatments. 4-hydroxycoumarin, OSU-CG5, and OSU-CG12 were used as positive controls. […] Compounds 9b, 9c, 9f, 9i, 11b, and 11c were selected for further studies to determine the full dose-response survival curves using different concentrations (0.1–20 µM) against CRC cell lines and normal fibroblast cell line (F180) at different time points (Fig. 2A–2F and supplementary material Page S63 and S64).
(§3) Human colorectal carcinoma cell lines (HCT116) and (HT-29) were obtained from the European Collection of Cell Cultures (ECACC, UK). The cell lines were cultured in Roswell Park Memorial Institute medium (RPMI-1640, Sigma-Aldrich-St. Louis, MO, USA) supplemented with 10% fetal bovine serum (Sigma-Aldrich-St. Louis, MO, USA) and 1% penicillin/streptomycin (Sigma-Aldrich- Louis, MO, USA). F180 cell line (Human Normal Fibroblast), was kindly given by professor Ekkehard Dikomey (University Cancer Center, Hamburg University, Hamburg, Germany) and were cultured in Dulbecco’s Modified Eagle’s medium (DMEM, Sigma-Aldrich-St. Louis, MO, USA) supplemented with 10% fetal bovine serum (Sigma-Aldrich-St. Louis, MO, USA) and 1% penicillin/streptomycin (Sigma-Aldrich- Louis, MO, USA). All cell incubations were done at 37 °C in a humidified atmosphere of 5% CO2.
(§4) Cell viability was assessed using, 3-(4,5-dimethylthiazol-2-yl)-2,5-diphenyltetrazolium bromide (MTT) assay as previously described. In summary, cancer cell lines or F180 were seeded in complete medium at the density of 3 × 10^3/well and 5 × 10^3/well respectively in 96 well flat-bottom plates. After 24 h, cells were incubated with the candidate compounds at the indicated concentration for (24, 48 or 72 h). DMSO was used as vehicle control and 4-Hydroxycoumarin was purchased from (Sigma-Aldrich, St. Louis, MO, USA) and Cisplatin from Hospira UK Ltd. At the end of treatment, the media were aspirated from each well and incubated with 200 µL of MTT tetrazolium dye (Sigma-Aldrich, St. Louis, MO, USA) at a final concentration of 0.5 mg/ml for 2 h at 37 °C. The reduced MTT crystals were solubilized in 200 µl/well of DMSO and the absorbance was measured at 570 nm using a microplate reader (Thermo-Scientific, Vantaa, Finland).

[3] = test system: HT-29; assay: Glucose uptake assay, HT-29; details: HT-29, 16 h treatment, dose-dependent
Excerpt: as §1
CRC cells (1 × 10^4) were seeded into a 96-well plate overnight. Cells were treated with test compounds or vehicle (negative control) glucose-free RPMI-1640 medium for 16 h; then, the cells were incubated with 2 mM 2-DG for 10 minutes. Eventually, glucose uptake of cells was measured using Glucose Uptake-Glo Assay (Promega, Madison, WI, USA) according to the manufacturer’s instructions. Luminescence was measured post 2 h of incubation at room temperature using Varioskan Flash multimode reader (Thermo Scientific). Glucose uptake was normalized to the total protein content in the samples using DC protein assay kit (Bio-Rad, Hercules, CA, USA).

[4] = test system: colorectal cancer cell lines, HCT116 and HT-29; assay: MTT cell viability, colorectal cancer cell lines (summary statements); details: for anticancer activities in initial screening, in words: HT-29 and HCT116 cancer cell lines
Description: as §2, §3, §4

[5] = test system: HT-29; assay: MTT cell viability, HT-29; details: 72 h, MTT assay, mean ± SD (n = 6), read-out: half-maximal inhibitory concentration (IC50) HT-29
Description: as §2, §3, §4

Cc1cc(=O)oc2cc(Nc3nc(-c4cccc([N+](=O)[O-])c4)cs3)ccc12 [Compound 9f, 4-Methyl-7-(4-(3-Nitrophenyl)thiazol-2-ylamino)-2H-chromen-2-one]
NADPH/NADP+ ratio [1]: significant decrease
IC50 [2]: 2560 ± 553 nM
IC50 ([2]; Homo sapiens, HCT-116, 72 h): 3960 nM
glucose uptake [3]: inhibited significantly
anticancer activities in initial screening, in words [4]: significant anticancer activities
IC50 [5]: 3960 ± 506 nM
IC50 ([5]; Homo sapiens, HT-29, 72 h): 2560 nM

Cc1cc(=O)oc2cc(Nc3nc(-c4ccc(Br)cc4)cs3)ccc12 [Compound 9b, 7-(4-(4-Bromophenyl)thiazol-2-ylamino)-4-methyl-2H-chromen-2-one]
NADPH/NADP+ ratio [1]: significant decrease
IC50 [2]: 530 ± 77 nM
IC50 ([2]; Homo sapiens, HCT-116, 72 h): 380 nM
glucose uptake [3]: inhibited significantly
anticancer activities in initial screening, in words [4]: significant anticancer activities
IC50 ([4]; both cell lines, summary statement): < 600 nM
IC50 [5]: 380 ± 44 nM
IC50 ([5]; Homo sapiens, HT-29, 72 h): 530 nM
